Data from PubChem BioAssay AID2060500 (Molecular Pharmacology Branch, DTP, NCI, 2025).

Tested on: 596521-263-R-J1-PDC complex spheroids, viability % of control
Assay: Anticancer human tumor 596521-263-R-J1-PDC patient-derived soft tissue sarcoma cell line growth inhibition [GQUAD]
Details: for IC50: curve of first compound; for viability, T/C: stronger effect = lower value
Summary of the method: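 Viability of tumor cells grown as complex spheroids with endothelial and stromal cells, exposed to drug combinations. Top concentration at or near clinical Cmax (else 10 microM), diluted in half-log increments.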

[1] = second compound 0.0316 µM, first compound 0.0316 µM
[2] = second compound 0.0316 µM, first compound 0.316 µM
[3] = second compound 0.1 µM, first compound 0.0316 µM
[4] = second compound 0.1 µM, first compound 0.316 µM
[5] = second compound 0.316 µM, first compound 0.0316 µM
[6] = second compound 0.316 µM, first compound 0.316 µM
[7] = second compound 1 µM, first compound 0.0316 µM
[8] = second compound 1 µM, first compound 0.316 µM
[9] = second compound 3.16 µM, first compound 0.0316 µM
[10] = second compound 3.16 µM, first compound 0.316 µM
[11] = second compound 10 µM, first compound 0.0316 µM
[12] = second compound 10 µM, first compound 0.316 µM
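Further: spheroids exposed to drugs for 7 days before viability reading.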
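Wherever viability, T/C is given: 100% = DMSO vehicle control viability.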

## CC1COCCN1c1cc(-c2ccnn2C)c2ccnc(-c3ccn[nH]3)c2n1 (centres undefined) + CN(C)c1ccc(Nc2c3ccc(NC(=O)CCN4CCCC4)cc3nc3cc(NC(=O)CCN4CCCC4)ccc23)cc1
Second compound 0.0316 µM
  IC50: 206 nM
Second compound 0.1 µM
  IC50: 301 nM
Second compound 0.316 µM
  IC50: 366 nM
Second compound 1 µM
  IC50: 449 nM
Second compound 3.16 µM
  IC50: 348 nM
Second compound 10 µM
  IC50: 161 nM
[1]
  viability, T/C: 69.3%
Second compound 0.0316 µM, first compound 0.1 µM
  viability, T/C: 53.7%
[2]
  viability, T/C: 44.4%
Second compound 0.0316 µM, first compound 1 µM
  viability, T/C: 41.3%
Second compound 0.0316 µM, first compound 3.16 µM
  viability, T/C: 29.4%
Second compound 0.0316 µM, first compound 10 µM
  viability, T/C: 22.8%
[3]
  viability, T/C: 81%
Second compound 0.1 µM, first compound 0.1 µM
  viability, T/C: 59.2%
[4]
  viability, T/C: 49.5%
Second compound 0.1 µM, first compound 1 µM
  viability, T/C: 39.2%
Second compound 0.1 µM, first compound 3.16 µM
  viability, T/C: 30.9%
Second compound 0.1 µM, first compound 10 µM
  viability, T/C: 21.3%
[5]
  viability, T/C: 65.6%
Second compound 0.316 µM, first compound 0.1 µM
  viability, T/C: 63.4%
[6]
  viability, T/C: 49.9%
Second compound 0.316 µM, first compound 1 µM
  viability, T/C: 39.3%
Second compound 0.316 µM, first compound 3.16 µM
  viability, T/C: 30.4%
Second compound 0.316 µM, first compound 10 µM
  viability, T/C: 21.9%
[7]
  viability, T/C: 66.2%
Second compound 1 µM, first compound 0.1 µM
  viability, T/C: 63.6%
[8]
  viability, T/C: 50.2%
Second compound 1 µM, first compound 1 µM
  viability, T/C: 45.4%
Second compound 1 µM, first compound 3.16 µM
  viability, T/C: 30.6%
Second compound 1 µM, first compound 10 µM
  viability, T/C: 25%
[9]
  viability, T/C: 69.4%
Second compound 3.16 µM, first compound 0.1 µM
  viability, T/C: 59.4%
[10]
  viability, T/C: 49.8%
Second compound 3.16 µM, first compound 1 µM
  viability, T/C: 43.6%
Second compound 3.16 µM, first compound 3.16 µM
  viability, T/C: 31.1%
Second compound 3.16 µM, first compound 10 µM
  viability, T/C: 22.9%
[11]
  viability, T/C: 55.6%
Second compound 10 µM, first compound 0.1 µM
  viability, T/C: 54.8%
[12]
  viability, T/C: 44.4%
Second compound 10 µM, first compound 1 µM
  viability, T/C: 35.5%
Second compound 10 µM, first compound 3.16 µM
  viability, T/C: 26.6%
Second compound 10 µM, first compound 10 µM
  viability, T/C: 21.9%

## Cn1ncnc1[C@H]1c2n[nH]c(=O)c3cc(F)cc(c23)N[C@@H]1c1ccc(F)cc1 + Cc1cnc(CNC(=O)c2c(=O)c3ccc(N4CCCN(C)CC4)nc3n3c2sc2ccccc23)cn1
Second compound 0.0316 µM
  IC50: > 316 nM
Second compound 0.1 µM
  IC50: > 316 nM
Second compound 0.316 µM
  IC50: > 316 nM
Second compound 1 µM
  IC50: > 316 nM
Second compound 3.16 µM
  IC50: > 316 nM
Second compound 10 µM
  IC50: 103 nM
Second compound 0.0316 µM, first compound 0.000999 µM
  viability, T/C: 108%
Second compound 0.0316 µM, first compound 0.00316 µM
  viability, T/C: 83.4%
Second compound 0.0316 µM, first compound 0.00999 µM
  viability, T/C: 94.5%
[1]
  viability, T/C: 90.2%
Second compound 0.0316 µM, first compound 0.0999 µM
  viability, T/C: 90.2%
[2]
  viability, T/C: 71.2%
Second compound 0.1 µM, first compound 0.000999 µM
  viability, T/C: 88.5%
Second compound 0.1 µM, first compound 0.00316 µM
  viability, T/C: 84%
Second compound 0.1 µM, first compound 0.00999 µM
  viability, T/C: 72.3%
[3]
  viability, T/C: 81.2%
Second compound 0.1 µM, first compound 0.0999 µM
  viability, T/C: 74.6%
[4]
  viability, T/C: 64.7%
Second compound 0.316 µM, first compound 0.000999 µM
  viability, T/C: 81.3%
Second compound 0.316 µM, first compound 0.00316 µM
  viability, T/C: 71.1%
Second compound 0.316 µM, first compound 0.00999 µM
  viability, T/C: 86.4%
[5]
  viability, T/C: 68.5%
Second compound 0.316 µM, first compound 0.0999 µM
  viability, T/C: 76%
[6]
  viability, T/C: 65.9%
Second compound 1 µM, first compound 0.000999 µM
  viability, T/C: 74.1%
Second compound 1 µM, first compound 0.00316 µM
  viability, T/C: 66.2%
Second compound 1 µM, first compound 0.00999 µM
  viability, T/C: 60.5%
[7]
  viability, T/C: 53.7%
Second compound 1 µM, first compound 0.0999 µM
  viability, T/C: 60%
[8]
  viability, T/C: 59.7%
Second compound 3.16 µM, first compound 0.000999 µM
  viability, T/C: 55.9%
Second compound 3.16 µM, first compound 0.00316 µM
  viability, T/C: 56.4%
Second compound 3.16 µM, first compound 0.00999 µM
  viability, T/C: 54%
[9]
  viability, T/C: 55.7%
Second compound 3.16 µM, first compound 0.0999 µM
  viability, T/C: 56.5%
[10]
  viability, T/C: 53%
Second compound 10 µM, first compound 0.000999 µM
  viability, T/C: 52.9%
Second compound 10 µM, first compound 0.00316 µM
  viability, T/C: 40.3%
Second compound 10 µM, first compound 0.00999 µM
  viability, T/C: 56.2%
[11]
  viability, T/C: 50.1%
Second compound 10 µM, first compound 0.0999 µM
  viability, T/C: 52.8%
[12]
  viability, T/C: 32.2%
